In ChEMBL document CHEMBL3046152, “Synthesis and fungicide activity of 2,3-dihydroimidazo [2,1-b]thiazole-5-carboxamides” (1995):

How the values were obtained:
Assay type in all cases: functional
[1] = test system: Parastagonospora nodorum; assay: Fungicidal activity against Phaeosphaeria nodorum inoculated in 24 hr compound-treated plant foliage assessed as disease control at 200 ppm measured after 7 days
[2] = test system: Oculimacula yallundae; assay: Fungicidal activity against Oculimacula yallundae inoculated in 24 hr compound-treated plant foliage assessed as disease control at 200 ppm measured after 7 days
[3] = test system: Parastagonospora nodorum; assay: Fungicidal activity against Phaeosphaeria nodorum inoculated in 24 hr compound-treated plant foliage assessed as disease control at 40 ppm measured after 7 days
[4] = test system: Oculimacula yallundae; assay: Fungicidal activity against Oculimacula yallundae inoculated in 24 hr compound-treated plant foliage assessed as disease control at 40 ppm measured after 7 days
[5] = test system: Parastagonospora nodorum; assay: Fungicidal activity against Phaeosphaeria nodorum inoculated in 24 hr compound-treated plant foliage assessed as disease control at 20 ppm measured after 7 days
[6] = test system: Oculimacula yallundae; assay: Fungicidal activity against Oculimacula yallundae inoculated in 24 hr compound-treated plant foliage assessed as disease control at 20 ppm measured after 7 days

SMILES	Activity [1]	Activity [2]	Activity [3]	Activity [4]	further results
Cc1nc2n(c1C(=O)N1CCCCC1)CCS2(=O)=O	23%	0%			
Cc1nc2n(c1C(=O)Nc1ccccn1)CCS2(=O)=O	0%	100%			
CCNC(=O)c1c(Cl)nc2n1CCS2(=O)=O			23%	39%	
O=C(Nc1c(Cl)cccc1Cl)c1c(-c2ccccc2)nc2n1CCS2(=O)=O			23%	9%	
O=C(c1c(Cl)nc2n1CCS2(=O)=O)N1CCCCC1	23%	0%			
CN(C(=O)c1c(Cl)nc2n1CCS2(=O)=O)c1ccccc1	0%	39%			
O=C(Nc1ccccn1)c1c(Cl)nc2n1CCS2(=O)=O	0%	100%			
O=C(Nc1c(Cl)cccc1Cl)c1c(Cl)nc2n1CCS2(=O)=O			0%	39%	
Cc1nc2n(c1C(=O)Nc1c(Cl)cccc1Cl)CCS2(=O)=O			23%	0%	
C[Si](Cn1cncn1)(c1ccc(F)cc1)c1ccc(F)cc1 [FLUSILAZOLE]					Activity [5]: 99%; Activity [6]: 98%
O=C(c1c(Cl)nc2n1CCS2(=O)=O)N1CCOCC1			23%	0%	
Cc1nc2n(c1C(=O)Nc1ccccc1)CCS2(=O)=O	23%	54%			
